Measurements taken from ChEMBL document CHEMBL4130472, “Synthesis of naphthazarin derivatives and identification of novel thioredoxin reductase inhibitor as potential anticancer agent” (Eur J Med Chem, 2017).

Key:
HL-60 [1] = assay: Cytotoxicity in human HL60 cells assessed as cell viability at 20 uM incubated for 48 hrs by MTT assay; type: functional; conditions: HL-60, 48 h, read-out: Activity
HL-60 [2] = assay: Cytotoxicity in human HL60 cells assessed as reduction in cell viability incubated for 48 hrs by MTT assay; type: functional, cell-based; conditions: HL-60, 48 h
HL-60 [3] = assay: Cytotoxicity in human HL60 cells assessed as reduction in cell viability incubated for 72 hrs by MTT assay; type: functional, cell-based; conditions: HL-60, 72 h

Structure (SMILES) | viability at 20 µM (HL-60 [1]) | IC50 (HL-60 [2]) | IC50 (HL-60 [3])
O=C1C=CC(=O)c2c(O)ccc(O)c21 [NAPHTHAZALIN] | 0% | 0.93 µM | 0.8 µM
CNC1=CC(=O)c2c(O)ccc(O)c2C1=O | 63% | – | –
O=C1C=C(N2CCCC2)C(=O)c2c(O)ccc(O)c21 | 97.2% | – | –
CC(C)CCNC1=CC(=O)c2c(O)ccc(O)c2C1=O | 54.3% | – | –
CCC(C)NC1=CC(=O)c2c(O)ccc(O)c2C1=O (stereo not given) | 57% | – | –
O=C1C=C(NCCO)C(=O)c2c(O)ccc(O)c21 | 50.3% | – | –
O=C1C=C(NCc2ccccc2)C(=O)c2c(O)ccc(O)c21 | 54.6% | – | –
O=C1C=C(N2CCOCC2)C(=O)c2c(O)ccc(O)c21 | 50.1% | – | –
